{
  "source": "patent US9079876B2",
  "about": "“Imidazole derivatives and preparation method and use thereof” (Beijing Orbiepharm Co., Ltd., priority 2010, dated 2015)",
  "key": {"[1]": {"target": "T1, cyclooxygenase-1 (COX-1 enzyme) (Homo sapiens, UniProt P23219)", "T1 construct": "from tissue; host or cells: human whole blood without heparin (platelets) from healthy volunteers", "T1 sequence (P23219 24-599)": "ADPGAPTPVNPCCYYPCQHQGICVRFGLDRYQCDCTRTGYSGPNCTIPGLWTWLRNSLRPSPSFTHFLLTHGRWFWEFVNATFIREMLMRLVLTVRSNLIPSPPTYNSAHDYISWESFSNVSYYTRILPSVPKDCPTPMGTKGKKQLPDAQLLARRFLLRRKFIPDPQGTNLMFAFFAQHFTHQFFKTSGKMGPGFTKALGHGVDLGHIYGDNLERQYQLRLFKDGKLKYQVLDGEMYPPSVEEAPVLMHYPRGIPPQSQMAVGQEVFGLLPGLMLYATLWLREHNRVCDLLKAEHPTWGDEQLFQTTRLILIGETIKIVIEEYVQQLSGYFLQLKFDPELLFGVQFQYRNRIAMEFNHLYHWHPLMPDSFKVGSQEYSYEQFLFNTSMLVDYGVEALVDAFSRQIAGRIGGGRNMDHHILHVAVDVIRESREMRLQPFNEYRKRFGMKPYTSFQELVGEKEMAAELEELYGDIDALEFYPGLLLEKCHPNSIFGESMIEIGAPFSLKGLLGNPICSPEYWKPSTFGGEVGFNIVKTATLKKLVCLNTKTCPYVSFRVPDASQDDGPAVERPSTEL", "experiment": "Human whole blood in vitro activity assay, COX-1 (TXB2 by EIA)", "type": "cell-based", "settings": "read-out: IC50 (μg/mL) COX-1 (converted)", "description": "(§1) Human whole blood in vitro activity study: inhibition of activity of cyclooxygenase-1 (COX-1 enzyme) and cyclooxygenase-2 (COX-2 enzyme) in human blood. […] The blood samples were divided into two parts: one was used for detecting COX-1 enzyme activity, and the other was used for detecting COX-2 enzyme activity. The compounds were dissolved in DMSO, and were prepared in advance into 2 μL solutions in respective concentrations of 500, 50, 5, 0.5, 0.05, 0.005, 0.0005 μg/mL. 200 μL whole blood without heparin was added in the tubes containing the compounds, and then incubated at 37° C. for 1 hour. The activity of COX-1 enzyme was detected by determining the amount of thromboxane B2 (TXB2) synthesized by platelet using an EIA kit. Samples tested without the compounds were negative controls. For COX-2, 200 μL whole blood with heparin was added in the tubes containing the compounds and in the tubes containing 10 μg/mL LPS. LPS control and blank control with solvent only were used respectively for determining the maximum value and the background value of the PGE2 produced therefrom. The samples were incubated at 37° C. for 24 hours, and then centrifuged to collect serum/plasma, which was stored at −80° C. for detection by an EIA kit. The EIA kit of Cayman Company was used, the amounts of TXB2 and PGE2 were determined in accordance to the manufacturer's instructions, and the activities of COX-1 and COX-2 were tested respectively."}, "[2]": {"target": "T2, cyclooxygenase-2 (COX-2 enzyme) (Homo sapiens, UniProt P35354)", "T2 construct": "from tissue; host or cells: heparinised human whole blood from healthy volunteers, stimulated with LPS", "T2 sequence (P35354 18-604)": "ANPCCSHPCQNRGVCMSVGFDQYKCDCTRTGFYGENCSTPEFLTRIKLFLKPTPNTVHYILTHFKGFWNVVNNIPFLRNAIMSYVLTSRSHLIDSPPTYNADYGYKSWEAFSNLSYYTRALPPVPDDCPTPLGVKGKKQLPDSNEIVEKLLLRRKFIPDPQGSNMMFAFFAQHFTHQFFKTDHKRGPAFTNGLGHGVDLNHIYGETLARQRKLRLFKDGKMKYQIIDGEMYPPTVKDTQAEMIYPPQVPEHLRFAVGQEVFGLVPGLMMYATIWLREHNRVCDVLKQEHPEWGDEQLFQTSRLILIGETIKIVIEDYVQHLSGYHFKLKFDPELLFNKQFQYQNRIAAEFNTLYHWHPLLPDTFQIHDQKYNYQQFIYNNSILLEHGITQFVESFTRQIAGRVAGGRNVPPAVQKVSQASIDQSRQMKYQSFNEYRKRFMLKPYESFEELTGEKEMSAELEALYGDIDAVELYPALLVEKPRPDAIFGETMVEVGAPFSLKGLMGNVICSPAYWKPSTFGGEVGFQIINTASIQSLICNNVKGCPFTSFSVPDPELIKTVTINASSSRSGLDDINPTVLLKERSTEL", "experiment": "Human whole blood in vitro activity assay, COX-2 (LPS-induced PGE2 by EIA)", "type": "cell-based", "description": "as §1"}, "COX-2": {"target": "T3, COX-2 (Canis lupus familiaris, UniProt Q8SPQ9)", "T3 construct": "in vitro activity study using beagle dog whole blood was conducted; from tissue; host or cells: beagle dog whole blood, stimulated with LPS (by the same method as for human blood)", "T3 sequence (Q8SPQ9 18-604)": "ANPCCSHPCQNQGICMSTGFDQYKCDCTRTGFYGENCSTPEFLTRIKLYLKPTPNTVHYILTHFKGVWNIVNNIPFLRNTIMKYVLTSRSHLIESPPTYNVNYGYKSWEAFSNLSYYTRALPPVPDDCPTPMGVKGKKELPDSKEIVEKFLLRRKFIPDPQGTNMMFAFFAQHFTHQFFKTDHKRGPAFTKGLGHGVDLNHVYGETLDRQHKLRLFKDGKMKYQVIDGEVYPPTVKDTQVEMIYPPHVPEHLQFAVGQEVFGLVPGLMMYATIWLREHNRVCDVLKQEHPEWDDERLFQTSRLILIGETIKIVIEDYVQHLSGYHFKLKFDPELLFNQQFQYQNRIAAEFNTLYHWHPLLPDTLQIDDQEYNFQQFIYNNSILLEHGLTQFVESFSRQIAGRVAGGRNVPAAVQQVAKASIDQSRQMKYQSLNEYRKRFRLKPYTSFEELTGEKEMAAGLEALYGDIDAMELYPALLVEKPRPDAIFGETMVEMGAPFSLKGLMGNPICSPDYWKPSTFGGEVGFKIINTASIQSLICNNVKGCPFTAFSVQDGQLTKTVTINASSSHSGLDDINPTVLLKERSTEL", "experiment": "Dog whole blood in vitro activity assay, COX-2", "type": "cell-based, beagle dog"}, "[3]": {"system": "mice tail suspension immobility time", "experiment": "Tail suspension test in mice (anti-depression model)", "type": "in vivo, Male Kunming mice", "description": "In Vivo Test: Tail Suspension Test in Mice (Evaluation on an Anti-Depression Model)\nMale Kunming mice, approximately 20 g, were randomized into six groups, i.e. normal group, positive drug group (fluoxetine 20 mg/kg), compound 1: group A 5 mg/kg, group B 10 mg/kg, group C 20 mg/kg, and group D 40 mg/kg.\nSingle Dose Test: Mice were normally fed for 1 day and allowed to adapt to the environment. Then the mice were fasted (except water) for 16 hours, and were intragastrically administrated with a single dose of the compound. The normal group was intragastrically administrated with an equivalent amount of distilled water. 40 min after the administration, the mice were inverted and fixed to a tail suspension device, and the distance between the head and the desktop was about 30 cm. Immobility time was recorded with an analysis record system, for the latter 4 min within the 6 min recording period, and was used for statistical analysis.\n(§2) Study with Three-Day Consecutive Dosing: Mice were normally fed for 1 day and allowed to adapt to the environment. Then the mice were intragastrically administrated with the test drug for 3 consecutive days (once per day), and the normal group was intragastrically administrated with an equivalent amount of distilled water. The mice were fasted (except water) for 16 hours before the last dosing. 40 min after the last dosing, the mice were inverted and fixed to the tail suspension device, and the distance between the head and the desktop was about 30 cm. Immobility time was recorded with an analysis record system, for the latter 4 min within the 6 min recording period, and was used for statistical analysis.\nas §2, with “with Seven-Day” for “with Three-Day”, “intragastrically dosed” for “intragastrically administrated with the test drug”, “for 7” for “for 3”, “days (once/day),” for “days (once per day),”, “last administration.” for “last dosing.”, “last administration,” for “last dosing,”"}},
  "data": [
    {"smiles": "CS(=O)(=O)c1ccc(-n2cnc(Cl)c2-c2ccccc2)nc1", "note": "[Compound 1, 2-(4-chloro-5-phenyl-1H-imidazol-1-yl)-5-(methylsulfonyl)pyridine]", "values": [
      {"measurement": "IC50", "setting": "[1]", "result": 39500, "unit": "nM"},
      {"measurement": "IC50COX-1/IC50COX-2", "setting": "[2]", "result": 44.0},
      {"measurement": "IC50", "setting": "[2]; LPS, PGE2, read-out: IC50 (μg/mL) COX-2 (converted)", "result": 899, "unit": "nM"},
      {"measurement": "IC50COX-1/IC50COX-2", "setting": "COX-2", "result": 83.2},
      {"measurement": "IC50", "setting": "COX-2; read-out: IC50 (μg/mL) COX-2 (converted)", "result": 2640, "unit": "nM"},
      {"measurement": "tail suspension Immobility time", "setting": "[3]; 3 days consecutive administration, 5 mg/kg intragastric, in s (unit assumed)", "result": "45.36 ± 12.09"},
      {"measurement": "tail suspension Immobility time", "setting": "[3]; 3 days consecutive administration, 10 mg/kg intragastric, in s (unit assumed)", "result": "31.94 ± 8.76"},
      {"measurement": "tail suspension Immobility time", "setting": "[3]; 3 days consecutive administration, 20 mg/kg intragastric, in s (unit assumed)", "result": "33.64 ± 15.78"},
      {"measurement": "tail suspension Immobility time", "setting": "[3]; 3 days consecutive administration, 40 mg/kg intragastric, in s (unit assumed)", "result": "41.36 ± 14.22"},
      {"measurement": "tail suspension Immobility time", "setting": "[3]; 7 days consecutive administration, 5 mg/kg intragastric, 5 mg/kg, in s (unit assumed)", "result": "45.11 ± 16.88"},
      {"measurement": "tail suspension Immobility time", "setting": "[3]; 7 days consecutive administration, 5 mg/kg intragastric, listed as test drug, 5 mg/kg", "result": "tendency of reduction in immobility time"},
      {"measurement": "tail suspension Immobility time", "setting": "[3]; 7 days consecutive administration, 10 mg/kg intragastric, in s (unit assumed)", "result": "36.47 ± 15.13"},
      {"measurement": "tail suspension Immobility time", "setting": "[3]; 7 days consecutive administration, 20 mg/kg intragastric, in s (unit assumed)", "result": "29.98 ± 9.87"},
      {"measurement": "tail suspension Immobility time", "setting": "[3]; 7 days consecutive administration, 40 mg/kg intragastric, in s (unit assumed)", "result": "29.70 ± 15.02"},
      {"measurement": "tail suspension Immobility time", "setting": "[3]; single dose, 5 mg/kg intragastric, 40 min after administration, in s (unit assumed)", "result": "46.57 ± 16.46"},
      {"measurement": "tail suspension Immobility time", "setting": "[3]; single dose, 10 mg/kg intragastric, 40 min after administration, in s (unit assumed)", "result": "47.10 ± 17.93"},
      {"measurement": "tail suspension Immobility time", "setting": "[3]; single dose, 20 mg/kg intragastric, 40 min after administration, in s (unit assumed)", "result": "43.25 ± 14.41"},
      {"measurement": "tail suspension Immobility time", "setting": "[3]; single dose, 40 mg/kg intragastric, 40 min after administration, in s (unit assumed)", "result": "46.58 ± 15.32"}
    ]}
  ]
}
